According to US7972800B2, “Screening method for binding property or signal transduction alterations” (Takeda Pharmaceutical Company Limited, priority 2003, dated 2011):

Tests used:
human GPR39 = molecular target: T1, human GPR39 (Homo sapiens, UniProt O43194); settings: Cytosensor, CHO/hGPR39 (FIG. 8)
T1 sequence (O43194 1-453): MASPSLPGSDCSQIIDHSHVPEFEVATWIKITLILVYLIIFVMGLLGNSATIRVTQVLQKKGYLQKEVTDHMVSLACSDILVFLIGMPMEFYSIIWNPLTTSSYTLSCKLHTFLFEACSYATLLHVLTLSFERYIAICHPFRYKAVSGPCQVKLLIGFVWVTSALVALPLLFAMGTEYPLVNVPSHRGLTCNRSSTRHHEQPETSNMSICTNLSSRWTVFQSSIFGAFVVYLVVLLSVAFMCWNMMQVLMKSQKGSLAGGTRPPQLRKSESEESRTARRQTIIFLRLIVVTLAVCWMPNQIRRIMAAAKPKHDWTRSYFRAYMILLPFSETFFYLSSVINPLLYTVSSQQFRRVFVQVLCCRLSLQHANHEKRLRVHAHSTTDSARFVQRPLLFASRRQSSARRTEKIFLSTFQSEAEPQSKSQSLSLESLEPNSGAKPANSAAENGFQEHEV
Experimental: (§1) Activation of the intracellular signal transduction system by ligands using a Cytosensor was determined in terms of the pH changes by metabolism of cells as an indicator.
(§2) The procedures were as follows. On the previous day, the human GPR39-expressing CHO cell line was cultured in a culture flask to reach a confluent state. After washing with PBS (Invitrogen Corp.), the cells were scraped off using trypsin (Invitrogen Corp.) and centrifuged for recovery. The cells were then suspended in medium and the suspension was adjusted to 3×10^5 cells/ml. The capsule of Cytosensor capsule kit (Molecular Device) was placed on a 12-well plate (Costar) and 1 ml of the cell suspension was charged therein. After covering with the lid, the cells were incubated at 37° C. in an incubator until next day. On the day when the assay was conducted, Cytosensor was activated as instructed by the protocol. Then, RPMI1640 medium (pH 7.4) (Invitrogen Corp.) for Cytosensor was prepared and equilibrated. The spacer was then placed in the capsule where the cells prepared on the previous day were seeded, and the capsule was set on Cytosensor. After equilibration with the medium, a sample was added to the cells by switching the flow path and pH changes were determined.

TGR7 = TGR7 (Homo sapiens, UniProt Q8TDS7); settings: Cytosensor, TGR7-expressed cells (FIG. 8)
Sequence of TGR7 (Q8TDS7 whole entry): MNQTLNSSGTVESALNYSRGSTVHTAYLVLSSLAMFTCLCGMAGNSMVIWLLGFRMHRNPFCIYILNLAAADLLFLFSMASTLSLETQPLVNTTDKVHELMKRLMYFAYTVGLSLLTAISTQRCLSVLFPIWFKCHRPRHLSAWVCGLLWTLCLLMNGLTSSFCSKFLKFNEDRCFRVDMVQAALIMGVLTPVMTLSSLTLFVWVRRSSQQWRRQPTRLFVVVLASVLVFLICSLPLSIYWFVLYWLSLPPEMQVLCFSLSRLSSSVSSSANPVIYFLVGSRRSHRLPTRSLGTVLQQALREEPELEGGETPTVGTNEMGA
Experimental: as §1, §2

[1] = system: mock cells where GPR39 was not expressed; settings: Cytosensor, mock cells where GPR39 was not expressed (FIG. 8)
Experimental: as §1, §2

[Cl][Ni][Cl] [nickel chloride]
cell response (pH change, acidification rate) in GPR39-expressed cells (human GPR39): a cell response specific to nickel was detected | cell response (pH change) in other receptor TGR7 cells (TGR7): any response was not detected | cell response (pH change) in mock cells [1]: any response was not detected
